Values after ≈ are worked out from the molar mass of the structure shown. Active and inactive are the calls of the source. No cut-off for these calls is given here.
Experiments:
Candida albicans [1] = assay: Antifungal activity against FCZ-resistant Candida albicans CaR by CLSI based broth microdilution method; type: functional
Candida albicans [2] = assay: Antifungal activity against FCZ-resistant Candida albicans 632 by CLSI based broth microdilution method; type: functional
Candida albicans [3] = assay: Antifungal activity against FCZ-resistant Candida albicans 901 by CLSI based broth microdilution method; type: functional
Candida albicans [4] = assay: Antifungal activity against FCZ-resistant Candida albicans 904 by CLSI based broth microdilution method; type: functional
Candida albicans [5] = assay: Fungicidal activity against Candida albicans sc5314; type: functional
Candida albicans [6] = assay: Fungicidal activity against FCZ-resistant Candida albicans 17#; type: functional
Candida albicans [7] = assay: Fungicidal activity against FCZ-resistant Candida albicans 632; type: functional
Candida albicans [8] = assay: Fungicidal activity against FCZ-resistant Candida albicans 901; type: functional
Candida albicans [9] = assay: Fungicidal activity against FCZ-resistant Candida albicans 904; type: functional
[10] = target: T1, Lanosterol 14-alpha demethylase (Candida albicans (strain SC5314 / ATCC MYA-2876) (Yeast), UniProt P10613); assay: Inhibition of CYP51 of Candida albicans ATCC SC5314 assessed as decrease in ergosterol level by measuring residual activity at 1 ug/ml incubated for 16 hrs by GC-MS analysis (reference value: 98.3 %); conditions: at 1 µg/mL
T1 sequence (P10613 whole entry): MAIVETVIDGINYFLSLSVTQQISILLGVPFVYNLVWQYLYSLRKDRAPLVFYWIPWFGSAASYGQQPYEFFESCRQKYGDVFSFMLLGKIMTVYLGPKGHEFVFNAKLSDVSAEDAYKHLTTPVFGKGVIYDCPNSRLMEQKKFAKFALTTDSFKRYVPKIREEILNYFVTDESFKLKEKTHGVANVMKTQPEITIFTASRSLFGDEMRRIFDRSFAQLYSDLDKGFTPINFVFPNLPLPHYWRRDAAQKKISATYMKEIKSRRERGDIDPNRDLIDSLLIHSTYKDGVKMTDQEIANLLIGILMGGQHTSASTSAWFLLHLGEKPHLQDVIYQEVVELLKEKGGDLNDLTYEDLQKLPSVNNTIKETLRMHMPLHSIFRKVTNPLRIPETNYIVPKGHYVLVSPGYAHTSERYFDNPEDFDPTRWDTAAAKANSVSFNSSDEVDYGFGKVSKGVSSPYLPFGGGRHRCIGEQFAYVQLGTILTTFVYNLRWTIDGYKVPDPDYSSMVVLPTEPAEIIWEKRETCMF

[11] = target: T1, Lanosterol 14-alpha demethylase; assay: Inhibition of CYP51 of Candida albicans ATCC SC5314 assessed as decrease in ergosterol level by measuring residual activity at 4 ug/ml incubated for 16 hrs by GC-MS analysis (reference value: 98.3 %); conditions: at 4 µg/mL
[12] = target: T1, Lanosterol 14-alpha demethylase; assay: Inhibition of CYP51 of Candida albicans ATCC SC5314 assessed as decrease in ergosterol level by measuring residual activity at 8 ug/ml incubated for 16 hrs by GC-MS analysis (reference value: 98.3 %); conditions: at 8 µg/mL
[13] = target: T1, Lanosterol 14-alpha demethylase; assay: Inhibition of CYP51 of Candida albicans ATCC SC5314 assessed as increase in obtusifoliol level at 1 ug/ml incubated for 16 hrs by GC-MS analysis (reference value: 0 %); set-up: scale not given: the % may be the effect or the level left; conditions: at 1 µg/mL
[14] = target: T1, Lanosterol 14-alpha demethylase; assay: Inhibition of CYP51 of Candida albicans ATCC SC5314 assessed as increase in obtusifoliol level at 2 ug/ml incubated for 16 hrs by GC-MS analysis (reference value: 0 %); set-up: scale not given: the % may be the effect or the level left; conditions: at 2 µg/mL
[15] = target: T1, Lanosterol 14-alpha demethylase; assay: Inhibition of CYP51 of Candida albicans ATCC SC5314 assessed as increase in obtusifoliol level at 8 ug/ml incubated for 16 hrs by GC-MS analysis (reference value: 0 %); set-up: scale not given: the % may be the effect or the level left; conditions: at 8 µg/mL
[16] = target: T1, Lanosterol 14-alpha demethylase; assay: Inhibition of CYP51 of Candida albicans ATCC SC5314 assessed as increase in lanosterol level at 1 ug/ml incubated for 16 hrs by GC-MS analysis (reference value: 1.7 %); set-up: scale not given: the % may be the effect or the level left; conditions: at 1 µg/mL
[17] = target: T1, Lanosterol 14-alpha demethylase; assay: Inhibition of CYP51 of Candida albicans ATCC SC5314 assessed as increase in eburicol level at 1 ug/ml incubated for 16 hrs by GC-MS analysis (reference value: 0 %); set-up: scale not given: the % may be the effect or the level left; conditions: at 1 µg/mL
[18] = target: T1, Lanosterol 14-alpha demethylase; assay: Inhibition of CYP51 of Candida albicans ATCC SC5314 assessed as increase in eburicol level at 2 ug/ml incubated for 16 hrs by GC-MS analysis (reference value: 0 %); set-up: scale not given: the % may be the effect or the level left; conditions: at 2 µg/mL
[19] = target: T1, Lanosterol 14-alpha demethylase; assay: Inhibition of CYP51 of Candida albicans ATCC SC5314 assessed as increase in eburicol level at 4 ug/ml incubated for 16 hrs by GC-MS analysis (reference value: 0 %); set-up: scale not given: the % may be the effect or the level left; conditions: at 4 µg/mL
[20] = target: T1, Lanosterol 14-alpha demethylase; assay: Inhibition of CYP51 of Candida albicans ATCC SC5314 assessed as increase in eburicol level at 8 ug/ml incubated for 16 hrs by GC-MS analysis (reference value: 0 %); set-up: scale not given: the % may be the effect or the level left; conditions: at 8 µg/mL
Candida albicans [21] = assay: Antibiofilm activity against Candida albicans SC5314 assessed as sessile minimum inhibitory concentration measured after 1.5 hrs by XTT assay; type: functional
Candida albicans [22] = assay: Antibiofilm activity against Candida albicans SC5314 assessed as sessile minimum inhibitory concentration measured after 3 hrs by XTT assay; type: functional
Candida albicans [23] = assay: Antibiofilm activity against Candida albicans SC5314 assessed as sessile minimum inhibitory concentration measured after 6 hrs by XTT assay; type: functional
Candida albicans [24] = assay: Antibiofilm activity against Candida albicans CPCC400616 assessed as sessile minimum inhibitory concentration measured after 1.5 hrs by XTT assay; type: functional
Candida albicans [25] = assay: Antibiofilm activity against Candida albicans CPCC400616 assessed as sessile minimum inhibitory concentration measured after 3 hrs by XTT assay; type: functional
[26] = Cytotoxicity against human HL-60 cells by MTT assay; type: toxicity, cell-based
[27] = Cytotoxicity against human MDA-MB-231 cells by MTT assay; type: toxicity, cell-based
[28] = Cytotoxicity against human PC-3 cells by MTT assay; type: toxicity, cell-based
[29] = Metabolic stability in mouse liver microsome assessed as half life; type: ADME; conditions: liver microsomes
[30] = Metabolic stability in mouse liver microsome assessed as clearance; type: ADME; conditions: liver microsomes, read-out: CLH
Candida albicans [31] = assay: Antifungal activity against Candida albicans ATCC SC5314 infected in mouse model assessed as reduction in kidney fungal burden at 6 to 12 mg/kg, ip measured after 5 consecutive days by colony forming unit assay; type: functional, organism-based; conditions: dose 6-12 mg/kg, time 5.0 day
[32] = Acute toxicity in water diet-fed Kunming mouse assessed as change in body weight at 500 mg/kg, IG measured for 7 days; type: organism-based; conditions: in vivo, po, 168 h, time 7 day
[33] = Acute toxicity in water diet-fed Kunming mouse administered intragastrically measured for 7 days; conditions: in vivo, po, route ig, time 7 day
[34] = Subacute toxicity in water diet-fed Kunming mouse assessed as adverse reactions at 100 to 200 mg/kg, IG measured for 48 hrs; type: organism-based; conditions: in vivo, po, dose 100-200 mg/kg
[35] = Subacute toxicity in water diet-fed Kunming mouse assessed as animal death at 100 to 200 mg/kg, IG measured after 7 to 14 days of continuous administration; type: organism-based; conditions: in vivo, po, dose lower 100 mg/kg, time lower 7 day, dose upper 200 mg/kg, time upper 14 day
[36] = Subacute toxicity in water diet-fed Kunming mouse assessed as lesions in liver at 100 to 200 mg/kg, IG measured after 8 to 15 days; type: organism-based; conditions: in vivo, po, dose lower 100 mg/kg, time lower 8 day, dose upper 200 mg/kg, time upper 15 day
[37] = Subacute toxicity in water diet-fed Kunming mouse assessed as lesions in kidney at 100 to 200 mg/kg, IG measured after 8 to 15 days; type: organism-based; conditions: in vivo, po, dose lower 100 mg/kg, time lower 8 day, dose upper 200 mg/kg, time upper 15 day
[38] = Subacute toxicity in water diet-fed Kunming mouse assessed as effect on kidney at 100 to 200 mg/kg, IG measured after 7 to 14 days by microscopic analysis; type: organism-based; conditions: in vivo, po, dose lower 100 mg/kg, time lower 7 day, dose upper 200 mg/kg, time upper 14 day
[39] = Subacute toxicity in water diet-fed Kunming mouse assessed as liver edema at 100 to 200 mg/kg, IG measured after 7 to 14 days by microscopic analysis; type: organism-based; conditions: in vivo, po, dose lower 100 mg/kg, time lower 7 day, dose upper 200 mg/kg, time upper 14 day
[40] = Subacute toxicity in water diet-fed Kunming mouse assessed as focal necrosis in liver at 100 to 200 mg/kg, IG measured after 7 to 14 days by microscopic analysis; type: organism-based; conditions: in vivo, po, dose lower 100 mg/kg, time lower 7 day, dose upper 200 mg/kg, time upper 14 day

What does the source list for `Clc1ccc(C(Cn2ccnc2)[Se][Se]C(Cn2ccnc2)c2ccc(Cl)cc2Cl)c(Cl)c1` (stereo not given)?
MIC (Candida albicans [1]): 2 µg/mL (≈ 3.13 µM); MIC (Candida albicans [2]): 4 µg/mL (≈ 6.27 µM); MIC (Candida albicans [3]): 2 µg/mL (≈ 3.13 µM); MIC (Candida albicans [4]): 4 µg/mL (≈ 6.27 µM); MFC (Candida albicans [5]): 8 µg/mL (≈ 12.5 µM); MFC (Candida albicans [6]): > 64 µg/mL; MFC (Candida albicans [7]): 16 µg/mL (≈ 25.1 µM); MFC (Candida albicans [8]): 2 µg/mL (≈ 3.13 µM); MFC (Candida albicans [9]): 4 µg/mL (≈ 6.27 µM); Activity [10]: 24.4%; Activity [11]: 2.7%; Activity [12]: 2.2%; Activity [13]: 6.4%; Activity [14]: 12.2%; Activity [15]: 19.8%; Activity [16]: 8.4%; Activity [17]: 60.8%; Activity [18]: 62.8%; Activity [19]: 69.5%; Activity [20]: 61.3%; MIC50 (Candida albicans [21]): 0.5 µg/mL (≈ 0.784 µM); MIC80 (Candida albicans [21]): 4 µg/mL (≈ 6.27 µM); MIC50 (Candida albicans [22]): 0.5 µg/mL (≈ 0.784 µM); MIC80 (Candida albicans [22]): 4 µg/mL (≈ 6.27 µM); MIC50 (Candida albicans [23]): 0.5 µg/mL (≈ 0.784 µM); MIC80 (Candida albicans [23]): 4 µg/mL (≈ 6.27 µM); MIC50 (Candida albicans [24]): 0.5 µg/mL (≈ 0.784 µM); MIC80 (Candida albicans [24]): 2 µg/mL (≈ 3.13 µM); MIC50 (Candida albicans [25]): 0.5 µg/mL (≈ 0.784 µM); MIC80 (Candida albicans [25]): 4 µg/mL (≈ 6.27 µM); IC50 [26]: 32.5 µM; IC50 [27]: 6.25 µM; IC50 [28]: 1.43 µM; half-life [29]: 41.1 min; CLint scaled [30]: 134 mL/min/kg; Activity (Candida albicans [31]): Active; Activity [32]: Non-Toxic; LD50 at 168 h [33]: ~2000 mg/kg; Activity [34]: Non-Toxic; Activity [35]: Non-Toxic; Activity [36]: Non-Toxic; Activity [37]: Non-Toxic; Activity [38]: Toxic; Activity [39]: Toxic; Activity [40]: Toxic

— ChEMBL document CHEMBL5352410, “Discovery of novel selenium-containing azole derivatives as antifungal agents by exploiting the hydrophobic cleft of CYP51” (Eur J Med Chem, 2022)
